Columns and labels:
Assay in all cases: drug sensitivity score (DSS) from 5-point dose-response viability curve (DSS (area-under-curve based score)); higher = more sensitive (stronger growth inhibition or killing); extreme values may be limits of the assay
Conditions in all cases: exposure time: 72 h; concentration range: 5 concentrations over 10,000-fold range
[1] = test system: CAOV3
Outline: (§1)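 Each cell line and drug received a drug sensitivity score from Breeze software, where higher means more sensitive. Zero stands for no response. Scores came from CellTiter-Glo viability readings of ovarian cancer and normal ovarian cells, 1,500 per well in 384-well plates, after 3 days at 37°C, 5% CO2 with drugs at five concentrations over a 10,000-fold range.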

[2] = test system: COV318
Outline: as §1

[3] = test system: COV362
Outline: as §1

[4] = test system: HOSE1C
Outline: as §1

[5] = test system: HOSE2C
Outline: as §1

[6] = test system: JHOS2
Outline: as §1

[7] = test system: Kuramochi
Outline: as §1

[8] = test system: OV90
Outline: as §1

[9] = test system: OVCAR4
Outline: as §1

[10] = test system: OVCAR5
Outline: as §1

[11] = test system: OVCAR8
Outline: as §1

[12] = test system: Ovsaho
Outline: as §1

Row | SMILES | drug sensitivity score [1] | drug sensitivity score [2] | drug sensitivity score [3] | drug sensitivity score [4] | drug sensitivity score [5] | drug sensitivity score [6] | drug sensitivity score [7] | drug sensitivity score [8] | drug sensitivity score [9] | drug sensitivity score [10] | drug sensitivity score [11] | drug sensitivity score [12]
1 | Cc1ccc(=O)n(-c2ccccc2)c1 [Pirfenidone] | 0 | 0 | 0 | 0 | 0 | 0 | 0 | 0 | 0 | 0 | 0 | 0
2 | N#Cc1ccc2[nH]c(O)c(-c3ccc(CN4CCOCC4)cn3)c2c1 [AZD-1080] | 0.9 | 0 | 0 | 0 | 0.3 | 0 | 0 | 0 | 0 | 0 | 0 | 0
3 | O=C(O)CC1CC(c2ccccc2)=NO1 (centres undefined) [VGX-1027] | 0 | 0 | 0 | 0 | 0 | 0 | 0 | 0 | 0 | 0 | 0 | 0
4 | O=C(c1ccc(C(=O)N2CCC(N3CCCC3)CC2)c(Nc2ccccc2)c1)N1CCC(N2CCCC2)CC1 [UNC1215] | 0 | 0 | 0 | 0 | 0 | 0 | 0 | 0 | 0 | 0 | 0 | 0
5 | O=C(c1ccc(OCCN2CCCCC2)cc1)c1c(-c2ccc(O)cc2)sc2cc(O)ccc12 [Raloxifene] | 0.5 | 1.8 | 1.2 | 0 | 0 | 1 | 2.6 | 1.9 | 0.3 | 2 | 1.5 | 3.3
6 | CCC(C)(C)C(=O)O[C@H]1C[C@@H](C)C=C2C=C[C@H](C)[C@H](CC[C@@H]3C[C@@H](O)CC(=O)O3)[C@H]21 [Simvastatin] | 0.1 | 0 | 0.4 | 8.7 | 8.8 | 0.2 | 1.3 | 1.5 | 0.7 | 0 | 2.9 | 3.5
7 | CCN1C(=O)CNc2ncc(-c3ccc(-c4nc[nH]n4)nc3C)nc21 [CC-115] | 8 | 5.6 | 2.4 | 12 | 9.2 | 7.5 | 7.3 | 10.4 | 9.3 | 7.4 | 8.5 | 11.2
8 | COC(=O)c1ccc2c(c1)NC(=O)/C2=C(\Nc1ccc(N(C)C(=O)CN2CCN(C)CC2)cc1)c1ccccc1 [Nintedanib] | 0.2 | 2.5 | 1.8 | 3.1 | 6.3 | 0.6 | 4.2 | 3.5 | 3.6 | 7.9 | 3.2 | 5.5
9 | Nc1ncnc2c1nc(Cl)n2[C@@H]1O[C@H](CO)[C@@H](O)[C@H]1O [8-chloro-adenosine] | 11.2 | 3.7 | 7.6 | 0.5 | 3.5 | 9.4 | 5.1 | 3.7 | 8 | 11.9 | 13.2 | 18.5
10 | C#Cc1cccc(Nc2ncnc3cc(OCCOC)c(OCCOC)cc23)c1 [Erlotinib] | 7.5 | 0.8 | 0.1 | 0 | 0.3 | 3 | 1.6 | 1.5 | 2 | 4.4 | 2.5 | 4.8
11 | O[C@H](C[C@H]1c2c(F)cccc2-c2cncn21)[C@H]1CC[C@H](O)CC1 [GDC-0919] | 0.1 | 3 | 0 | 0 | 0 | 0.4 | 0.1 | 0 | 0.8 | 0.6 | 0.7 | 0
12 | Cc1nc(C(=O)NCC(=O)O)c(O)c2ccc(Oc3ccccc3)cc12 [Roxadustat] | 1.3 | 0 | 0 | 0 | 0 | 0.1 | 0.4 | 0 | 0.3 | 0 | 0 | 0
13 | O=C(CCNC(=O)c1ccc(OC(F)(F)F)cc1)N[C@@H]1CCCc2ccccc21 [ML390] | 0.6 | 4.1 | 0 | 19.8 | 13.4 | 3.4 | 5.3 | 5.6 | 0 | 2 | 4.9 | 4.1
14 | CC[C@@](C)(Nc1ccnc(-c2c[nH]c3ncccc23)n1)C(=O)NCC(F)(F)F [Decernotinib] | 0 | 0 | 0 | 0 | 0.6 | 0 | 0 | 0 | 0 | 0 | 0 | 0
15 | CNC(=O)c1ccc2cc([C@@]3(O)CCn4cncc43)ccc2c1 [Orteronel] | 0 | 0 | 0 | 0 | 0 | 0 | 0 | 0 | 0 | 0 | 0 | 0
16 | COc1cc(C)c(/C=C/C(C)=C/C=C/C(C)=C/C(=O)O)c(C)c1C [Acitretin] | 0 | 0 | 0 | 0.1 | 0 | 1.3 | 0 | 0.2 | 0 | 0 | 0 | 0

Row | SMILES | drug sensitivity score [1] | drug sensitivity score [2] | drug sensitivity score [3] | drug sensitivity score [4] | drug sensitivity score [5] | drug sensitivity score [6] | drug sensitivity score [7] | drug sensitivity score [8] | drug sensitivity score [9] | drug sensitivity score [10] | drug sensitivity score [11] | drug sensitivity score [12]
17 | Nc1ncnc2c1c(COc1cccc(Cl)c1)nn2C1CCOCC1 | 0 | 0 | 0 | 0 | 0 | 0 | 0.3 | 0 | 0 | 0.6 | 0 | 0
18 | C[C@@H]1CCN(C(=O)CC#N)C[C@@H]1N(C)c1ncnc2[nH]ccc12 [Tofacitinib] | 0 | 0 | 0 | 2.8 | 0.2 | 0 | 0 | 0.3 | 0 | 0.2 | 0 | 0
19 | CNc1nc(-c2ccc3c(N)n[nH]c3c2)cc(N2C[C@@H](C(=O)NC3CCCCC3)CC[C@H]2C)n1 | 1.9 | 0.1 | 0 | 4.5 | 2.6 | 0.7 | 0.5 | 0 | 0 | 0 | 1.2 | 1.1
20 | CNC(=O)CN1CCC(Oc2cc3c(Nc4cccc(Cl)c4F)ncnc3cc2OC)CC1 [Sapitinib] | 6.8 | 0 | 0 | 0 | 0 | 0 | 0 | 0 | 0 | 1.7 | 0 | 0.7
21 | Nc1nc2cc(-c3ccc4ncc(C(=O)N5CCOCC5)n4c3)ccc2o1 [Serabelisib] | 2.9 | 0 | 0 | 0 | 5.1 | 0 | 0 | 0.1 | 0 | 1.8 | 0 | 0.8
22 | COc1cc(OC)cc(N(CCNC(C)C)c2ccc3ncc(-c4cnn(C)c4)nc3c2)c1 [Erdafitinib] | 0 | 3.5 | 0 | 3.2 | 11.2 | 0 | 0 | 0 | 2.6 | 0 | 0 | 0
23 | C=C1C[C@@H]2CC[C@@]34C[C@H]5O[C@H]6[C@@H](O3)[C@H]3O[C@H](CC[C@@H]3O[C@H]6[C@H]5O4)CC(=O)C[C@@H]3[C@@H](OC)[C@@H](C[C@H](O)CN)O[C@H]3C[C@H]3O[C@@H](CC[C@@H]1O2)C[C@@H](C)C3=C [Eribulin] | 25.8 | 4.2 | 7.9 | 25.8 | 24.3 | 9.1 | 12.9 | 20.3 | 6.3 | 20.5 | 24 | 12
24 | CN(C)Cc1ccc(S(=O)(=O)n2ccc(/C=C/C(=O)NO)c2)cc1 [Resminostat] | 8.2 | 4.8 | 2.9 | 19.3 | 12 | 5.3 | 5.8 | 9.7 | 3.2 | 12.3 | 11.8 | 3.6
25 | Cn1cnc2c(F)c(Nc3ccc(Br)cc3Cl)c(C(=O)NOCCO)cc21 [Selumetinib] | 11.2 | 0 | 5.8 | 0.2 | 0 | 5.4 | 5.4 | 20.1 | 4.2 | 11.2 | 2.1 | 11.1
26 | CC(C)c1cc(C(=O)N2Cc3ccc(CN4CCN(C)CC4)cc3C2)c(O)cc1O [Onalespib] | 11.6 | 5 | 7.7 | 9.2 | 11.7 | 12.8 | 6.6 | 14.6 | 6.7 | 10.6 | 16.4 | 3.1
27 | C[C@@H]1CN(CC(=O)Nc2ccc3c(c2)Cc2cccc(-c4cc(=O)cc(N5CCOCC5)o4)c2S3)C[C@H](C)O1 | 1.1 | 0 | 1.2 | 0 | 0 | 0 | 0.5 | 2.7 | 0.7 | 1.6 | 1.9 | 3.4
28 | O=C(Nc1ccc2[nH]nc(-c3ccncc3)c2c1)[C@@H]1CCN(CC(=O)N2CCN(c3ccc(-c4ncccn4)cc3)CC2)C1 | 12.2 | 0 | 4.9 | 0.2 | 1.1 | 8.4 | 13.2 | 23.5 | 1.7 | 13.4 | 6.7 | 14.1
29 | COc1ccccc1S(=O)(=O)Nc1ccc2c(c1)CN(C)C(=O)N2 [PFI-1] | 7.2 | 3.1 | 3 | 3.1 | 4.3 | 2.6 | 8.7 | 5.5 | 4.4 | 5.7 | 4.8 | 8.2
30 | Clc1ccc(C(c2ccccc2Cl)C(Cl)Cl)cc1 (centres undefined) [Mitotane] | 0 | 0.1 | 0 | 0 | 0 | 0 | 0 | 0.5 | 0.3 | 0 | 0 | 0
31 | O=C(O)C1(C(=O)O)CCC1.[NH2-].[NH2-].[Pt+2] [Carboplatin] | 6.1 | 5.5 | 0 | 7.8 | 5 | 3.1 | 4.9 | 3.6 | 5.6 | 4.7 | 1.9 | 5.5
32 | Cc1nc(Nc2ncc(C(=O)Nc3c(C)cccc3Cl)s2)cc(N2CCN(CCO)CC2)n1 [Dasatinib] | 9.9 | 0.2 | 8.2 | 4.6 | 6 | 3.5 | 18.5 | 5.5 | 4.6 | 8 | 9.1 | 12.1
